In paper PMC6891286, “Towards the Development of an In vivo Chemical Probe for Cyclin G Associated Kinase (GAK)” (Molecules, 2019):

How the values were obtained:
Experiment in all cases: KINOMEscan
Assay type in all cases: binding
[1] = biological target: T1, ABL1(H396P)-nonphosphorylated (Homo sapiens, UniProt P00519, H396P); settings: 35 at 1 µM; read-out: % inhibition
T1 construct: purchased Eurofins DiscoverX (KINOMEscan)
Method: (§1) KinomeScan Assay on 35 was performed as previously described at EuroFins DiscoverX (Fremont, CA, USA).

[2] = biological target: T2, ABL1(Q252H)-phosphorylated (Homo sapiens, UniProt P00519, Q252H); settings: 35 at 1 µM; read-out: % inhibition
T2 construct: purchased Eurofins DiscoverX (KINOMEscan)
Method: as §1

ALK(C1156Y) = biological target: T3, ALK(C1156Y) (Homo sapiens, UniProt Q9UM73, C1156Y); settings: 35 at 1 µM; read-out: % inhibition
T3 construct: purchased Eurofins DiscoverX (KINOMEscan)
Method: as §1

ARK5 = biological target: T4, ARK5 (Homo sapiens, UniProt O60285); settings: 35 at 1 µM; read-out: % inhibition
T4 construct: purchased Eurofins DiscoverX (KINOMEscan)
Method: as §1

BRK = biological target: T5, BRK (Homo sapiens, UniProt Q13882); settings: 35 at 1 µM; read-out: % inhibition
T5 construct: purchased Eurofins DiscoverX (KINOMEscan)
Method: as §1

CDK3 = biological target: T6, CDK3 (Homo sapiens, UniProt Q00526); settings: 35 at 1 µM; read-out: % inhibition
T6 construct: purchased Eurofins DiscoverX (KINOMEscan)
Method: as §1

EPHB1 = biological target: T7, EPHB1 (Homo sapiens, UniProt P54762); settings: 35 at 1 µM; read-out: % inhibition
T7 construct: purchased Eurofins DiscoverX (KINOMEscan)
Method: as §1

ERK2 = biological target: T8, ERK2 (Homo sapiens, UniProt P28482); settings: 35 at 1 µM; read-out: % inhibition
T8 construct: purchased Eurofins DiscoverX (KINOMEscan)
Method: as §1

ERN1 = biological target: T9, ERN1 (Homo sapiens, UniProt O75460); settings: 35 at 1 µM; read-out: % inhibition
T9 construct: purchased Eurofins DiscoverX (KINOMEscan)
Method: as §1

FAK = biological target: T10, FAK (Homo sapiens, UniProt Q05397); settings: 35 at 1 µM; read-out: % inhibition
T10 construct: purchased Eurofins DiscoverX (KINOMEscan)
Method: as §1

FLT3(R834Q) = biological target: T11, FLT3(R834Q) (Homo sapiens, UniProt P36888, R834Q); settings: 35 at 1 µM; read-out: % inhibition
T11 construct: purchased Eurofins DiscoverX (KINOMEscan)
Method: as §1

FLT3-autoinhibited = biological target: T12, FLT3-autoinhibited (Homo sapiens, UniProt P36888); settings: 35 at 1 µM; read-out: % inhibition
T12 construct: purchased Eurofins DiscoverX (KINOMEscan)
Method: as §1

FRK = biological target: T13, FRK (Homo sapiens, UniProt P42685); settings: 35 at 1 µM; read-out: % inhibition
T13 construct: purchased Eurofins DiscoverX (KINOMEscan)
Method: as §1

GRK4 = biological target: T14, GRK4 (Homo sapiens, UniProt P32298); settings: 35 at 1 µM; read-out: % inhibition
T14 construct: purchased Eurofins DiscoverX (KINOMEscan)
Method: as §1

IGF1R = biological target: T15, IGF1R (Homo sapiens, UniProt P08069); settings: 35 at 1 µM; read-out: % inhibition
T15 construct: purchased Eurofins DiscoverX (KINOMEscan)
Method: as §1

[3] = biological target: T16, JAK2(JH1domain-catalytic) (Homo sapiens, UniProt O60674); settings: 35 at 1 µM; read-out: % inhibition
T16 construct: JAK2(JH1domain-catalytic); purchased Eurofins DiscoverX (KINOMEscan)
Method: as §1

LIMK1 = biological target: T17, LIMK1 (Homo sapiens, UniProt P53667); settings: 35 at 1 µM; read-out: % inhibition
T17 construct: purchased Eurofins DiscoverX (KINOMEscan)
Method: as §1

LOK = biological target: T18, LOK (Homo sapiens, UniProt O94804); settings: 35 at 1 µM; read-out: % inhibition
T18 construct: purchased Eurofins DiscoverX (KINOMEscan)
Method: as §1

MARK3 = biological target: T19, MARK3 (Homo sapiens, UniProt P27448); settings: 35 at 1 µM; read-out: % inhibition
T19 construct: purchased Eurofins DiscoverX (KINOMEscan)
Method: as §1

MERTK = biological target: T20, MERTK (Homo sapiens, UniProt Q12866); settings: 35 at 1 µM; read-out: % inhibition
T20 construct: purchased Eurofins DiscoverX (KINOMEscan)
Method: as §1

MET(Y1235D) = biological target: T21, MET(Y1235D) (Homo sapiens, UniProt P08581, Y1235D); settings: 35 at 1 µM; read-out: % inhibition
T21 construct: purchased Eurofins DiscoverX (KINOMEscan)
Method: as §1

MRCKA = biological target: T22, MRCKA (Homo sapiens, UniProt Q5VT25); settings: 35 at 1 µM; read-out: % inhibition
T22 construct: purchased Eurofins DiscoverX (KINOMEscan)
Method: as §1

MST1 = biological target: T23, MST1 (Homo sapiens, UniProt Q13043); settings: 35 at 1 µM; read-out: % inhibition
T23 construct: purchased Eurofins DiscoverX (KINOMEscan)
Method: as §1

MST3 = biological target: T24, MST3 (Homo sapiens, UniProt Q9Y6E0); settings: 35 at 1 µM; read-out: % inhibition
T24 construct: purchased Eurofins DiscoverX (KINOMEscan)
Method: as §1

MYO3B = biological target: T25, MYO3B (Homo sapiens, UniProt Q8WXR4); settings: 35 at 1 µM; read-out: % inhibition
T25 construct: purchased Eurofins DiscoverX (KINOMEscan)
Method: as §1

NEK4 = biological target: T26, NEK4 (Homo sapiens, UniProt P51957); settings: 35 at 1 µM; read-out: % inhibition
T26 construct: purchased Eurofins DiscoverX (KINOMEscan)
Method: as §1

OSR1 = biological target: T27, OSR1 (Homo sapiens, UniProt O95747); settings: 35 at 1 µM; read-out: % inhibition
T27 construct: purchased Eurofins DiscoverX (KINOMEscan)
Method: as §1

PAK1 = biological target: T28, PAK1 (Homo sapiens, UniProt Q13153); settings: 35 at 1 µM; read-out: % inhibition
T28 construct: purchased Eurofins DiscoverX (KINOMEscan)
Method: as §1

PIK3C2G = biological target: T29, PIK3C2G (Homo sapiens, UniProt O75747); settings: 35 at 1 µM; read-out: % inhibition
T29 construct: purchased Eurofins DiscoverX (KINOMEscan)
Method: as §1

PIK3CD = biological target: T30, PIK3CD (Homo sapiens, UniProt O00329); settings: 35 at 1 µM; read-out: % inhibition
T30 construct: purchased Eurofins DiscoverX (KINOMEscan)
Method: as §1

PYK2 = biological target: T31, PYK2 (Homo sapiens, UniProt Q14289); settings: 35 at 1 µM; read-out: % inhibition
T31 construct: purchased Eurofins DiscoverX (KINOMEscan)
Method: as §1

RAF1 = biological target: T32, RAF1 (Homo sapiens, UniProt P04049); settings: 35 at 1 µM; read-out: % inhibition
T32 construct: purchased Eurofins DiscoverX (KINOMEscan)
Method: as §1

RET(M918T) = biological target: T33, RET(M918T) (Homo sapiens, UniProt P07949, M918T); settings: 35 at 1 µM; read-out: % inhibition
T33 construct: purchased Eurofins DiscoverX (KINOMEscan)
Method: as §1

RIPK2 = biological target: T34, RIPK2 (Homo sapiens, UniProt O43353)
T34 construct: purchased Eurofins DiscoverX (KINOMEscan)
Method: as §1

[4] = biological target: T35, RSK1(Kin.Dom.2-C-terminal) (Homo sapiens, UniProt Q15418); settings: 35 at 1 µM; read-out: % inhibition
T35 construct: RSK1(Kin.Dom.2-C-terminal); purchased Eurofins DiscoverX (KINOMEscan)
Method: as §1

SGK2 = biological target: T36, SGK2 (Homo sapiens, UniProt Q9HBY8); settings: 35 at 1 µM; read-out: % inhibition
T36 construct: purchased Eurofins DiscoverX (KINOMEscan)
Method: as §1

SIK = biological target: T37, SIK (Homo sapiens, UniProt P57059); settings: 35 at 1 µM; read-out: % inhibition
T37 construct: purchased Eurofins DiscoverX (KINOMEscan)
Method: as §1

TGFBR2 = biological target: T38, TGFBR2 (Homo sapiens, UniProt P37173)
T38 construct: purchased Eurofins DiscoverX (KINOMEscan)
Method: as §1

TLK1 = biological target: T39, TLK1 (Homo sapiens, UniProt Q9UKI8); settings: 35 at 1 µM; read-out: % inhibition
T39 construct: purchased Eurofins DiscoverX (KINOMEscan)
Method: as §1

ULK2 = biological target: T40, ULK2 (Homo sapiens, UniProt Q8IYT8); settings: 35 at 1 µM; read-out: % inhibition
T40 construct: purchased Eurofins DiscoverX (KINOMEscan)
Method: as §1

WNK2 = biological target: T41, WNK2 (Homo sapiens, UniProt Q9Y3S1); settings: 35 at 1 µM; read-out: % inhibition
T41 construct: purchased EuroFins DiscoverX (Fremont, CA, USA)
Method: as §1

[5] = 35 at 1 µM, read-out: % inhibition

T34 sequence (O43353 whole entry): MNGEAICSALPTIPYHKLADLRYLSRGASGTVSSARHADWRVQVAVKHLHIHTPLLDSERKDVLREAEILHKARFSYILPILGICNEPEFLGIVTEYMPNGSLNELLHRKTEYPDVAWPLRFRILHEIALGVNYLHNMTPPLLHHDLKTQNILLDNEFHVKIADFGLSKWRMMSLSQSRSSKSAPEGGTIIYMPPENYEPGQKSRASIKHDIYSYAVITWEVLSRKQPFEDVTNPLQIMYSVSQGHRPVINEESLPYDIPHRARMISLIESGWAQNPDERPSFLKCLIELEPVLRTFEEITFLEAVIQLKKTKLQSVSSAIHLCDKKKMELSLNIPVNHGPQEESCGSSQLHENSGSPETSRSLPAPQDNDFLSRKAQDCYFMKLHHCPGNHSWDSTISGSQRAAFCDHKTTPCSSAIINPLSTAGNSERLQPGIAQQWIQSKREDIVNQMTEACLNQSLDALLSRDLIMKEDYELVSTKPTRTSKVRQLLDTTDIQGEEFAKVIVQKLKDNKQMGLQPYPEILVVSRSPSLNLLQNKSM
T38 sequence (P37173 23-567): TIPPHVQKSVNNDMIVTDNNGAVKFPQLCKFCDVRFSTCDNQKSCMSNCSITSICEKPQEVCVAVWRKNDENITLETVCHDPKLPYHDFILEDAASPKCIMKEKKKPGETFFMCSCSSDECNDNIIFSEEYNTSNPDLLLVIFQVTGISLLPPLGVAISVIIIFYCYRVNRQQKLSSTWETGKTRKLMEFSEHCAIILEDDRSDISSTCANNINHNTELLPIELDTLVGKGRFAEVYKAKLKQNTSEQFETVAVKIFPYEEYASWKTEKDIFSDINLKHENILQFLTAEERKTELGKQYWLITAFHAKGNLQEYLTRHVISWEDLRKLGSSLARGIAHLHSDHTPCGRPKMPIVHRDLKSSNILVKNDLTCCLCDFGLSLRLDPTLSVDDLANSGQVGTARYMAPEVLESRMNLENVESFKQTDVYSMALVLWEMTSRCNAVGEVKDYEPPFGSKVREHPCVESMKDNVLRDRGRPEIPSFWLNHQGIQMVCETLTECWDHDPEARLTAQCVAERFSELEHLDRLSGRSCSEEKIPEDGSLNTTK
T20 sequence (Q12866 21-999): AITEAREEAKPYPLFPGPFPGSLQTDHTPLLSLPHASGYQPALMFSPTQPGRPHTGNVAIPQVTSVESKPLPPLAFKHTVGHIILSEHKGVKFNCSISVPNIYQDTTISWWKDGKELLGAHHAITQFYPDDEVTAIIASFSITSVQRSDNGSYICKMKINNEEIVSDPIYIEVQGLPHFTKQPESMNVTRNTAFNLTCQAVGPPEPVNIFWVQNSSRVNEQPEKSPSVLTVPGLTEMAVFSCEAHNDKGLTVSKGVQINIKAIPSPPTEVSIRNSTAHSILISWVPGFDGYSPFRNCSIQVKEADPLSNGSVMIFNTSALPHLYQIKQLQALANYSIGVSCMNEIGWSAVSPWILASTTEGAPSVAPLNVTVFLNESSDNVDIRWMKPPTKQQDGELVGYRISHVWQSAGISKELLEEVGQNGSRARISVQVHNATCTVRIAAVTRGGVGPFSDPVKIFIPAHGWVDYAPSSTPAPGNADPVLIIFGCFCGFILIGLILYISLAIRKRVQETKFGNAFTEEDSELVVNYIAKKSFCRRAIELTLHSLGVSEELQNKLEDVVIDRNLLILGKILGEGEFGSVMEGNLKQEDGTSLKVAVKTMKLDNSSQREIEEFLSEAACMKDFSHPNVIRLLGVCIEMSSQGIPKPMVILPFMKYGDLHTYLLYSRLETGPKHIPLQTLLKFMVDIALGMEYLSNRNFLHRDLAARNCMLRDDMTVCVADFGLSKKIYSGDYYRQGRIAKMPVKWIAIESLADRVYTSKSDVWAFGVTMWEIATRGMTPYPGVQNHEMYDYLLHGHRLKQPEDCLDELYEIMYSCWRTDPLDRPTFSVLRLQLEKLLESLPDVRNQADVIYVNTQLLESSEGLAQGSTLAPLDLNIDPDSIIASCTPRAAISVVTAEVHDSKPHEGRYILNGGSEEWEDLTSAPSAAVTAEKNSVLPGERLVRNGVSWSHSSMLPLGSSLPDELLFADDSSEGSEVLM
T6 sequence (Q00526 whole entry): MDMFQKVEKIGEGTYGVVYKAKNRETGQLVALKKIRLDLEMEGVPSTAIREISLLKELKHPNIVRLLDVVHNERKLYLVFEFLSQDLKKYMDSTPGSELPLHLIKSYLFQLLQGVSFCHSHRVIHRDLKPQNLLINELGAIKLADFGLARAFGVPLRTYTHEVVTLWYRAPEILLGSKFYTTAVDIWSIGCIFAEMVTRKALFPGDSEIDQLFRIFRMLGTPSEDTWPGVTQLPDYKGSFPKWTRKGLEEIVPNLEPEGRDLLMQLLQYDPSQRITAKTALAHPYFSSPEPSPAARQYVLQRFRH
T10 sequence (Q05397 whole entry): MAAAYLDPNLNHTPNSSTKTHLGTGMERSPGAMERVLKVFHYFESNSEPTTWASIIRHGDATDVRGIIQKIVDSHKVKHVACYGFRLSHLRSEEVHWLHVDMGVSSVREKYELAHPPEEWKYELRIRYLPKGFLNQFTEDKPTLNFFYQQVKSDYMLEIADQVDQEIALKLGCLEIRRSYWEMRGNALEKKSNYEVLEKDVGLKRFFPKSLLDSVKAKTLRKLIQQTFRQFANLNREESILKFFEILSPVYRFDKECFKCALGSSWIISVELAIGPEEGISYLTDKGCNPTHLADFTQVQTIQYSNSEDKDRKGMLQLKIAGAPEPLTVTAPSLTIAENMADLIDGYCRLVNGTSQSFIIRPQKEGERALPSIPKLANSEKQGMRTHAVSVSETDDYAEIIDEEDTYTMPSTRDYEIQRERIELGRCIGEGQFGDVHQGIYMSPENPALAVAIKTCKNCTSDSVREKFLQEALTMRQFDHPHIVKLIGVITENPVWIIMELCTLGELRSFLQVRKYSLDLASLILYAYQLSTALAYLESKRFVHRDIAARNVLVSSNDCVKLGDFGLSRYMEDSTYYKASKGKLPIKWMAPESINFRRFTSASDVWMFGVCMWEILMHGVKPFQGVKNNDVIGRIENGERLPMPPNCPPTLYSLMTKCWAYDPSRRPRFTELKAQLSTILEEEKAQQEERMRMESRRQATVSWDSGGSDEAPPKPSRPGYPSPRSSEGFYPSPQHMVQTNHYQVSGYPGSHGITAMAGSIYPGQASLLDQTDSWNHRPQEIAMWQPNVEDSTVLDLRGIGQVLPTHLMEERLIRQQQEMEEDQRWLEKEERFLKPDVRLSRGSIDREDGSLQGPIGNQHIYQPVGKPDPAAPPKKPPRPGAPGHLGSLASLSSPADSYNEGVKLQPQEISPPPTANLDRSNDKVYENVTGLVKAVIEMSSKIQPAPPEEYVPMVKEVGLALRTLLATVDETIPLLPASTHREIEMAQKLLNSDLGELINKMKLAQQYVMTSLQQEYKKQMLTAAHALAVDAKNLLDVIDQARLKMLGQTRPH
T17 sequence (P53667 whole entry): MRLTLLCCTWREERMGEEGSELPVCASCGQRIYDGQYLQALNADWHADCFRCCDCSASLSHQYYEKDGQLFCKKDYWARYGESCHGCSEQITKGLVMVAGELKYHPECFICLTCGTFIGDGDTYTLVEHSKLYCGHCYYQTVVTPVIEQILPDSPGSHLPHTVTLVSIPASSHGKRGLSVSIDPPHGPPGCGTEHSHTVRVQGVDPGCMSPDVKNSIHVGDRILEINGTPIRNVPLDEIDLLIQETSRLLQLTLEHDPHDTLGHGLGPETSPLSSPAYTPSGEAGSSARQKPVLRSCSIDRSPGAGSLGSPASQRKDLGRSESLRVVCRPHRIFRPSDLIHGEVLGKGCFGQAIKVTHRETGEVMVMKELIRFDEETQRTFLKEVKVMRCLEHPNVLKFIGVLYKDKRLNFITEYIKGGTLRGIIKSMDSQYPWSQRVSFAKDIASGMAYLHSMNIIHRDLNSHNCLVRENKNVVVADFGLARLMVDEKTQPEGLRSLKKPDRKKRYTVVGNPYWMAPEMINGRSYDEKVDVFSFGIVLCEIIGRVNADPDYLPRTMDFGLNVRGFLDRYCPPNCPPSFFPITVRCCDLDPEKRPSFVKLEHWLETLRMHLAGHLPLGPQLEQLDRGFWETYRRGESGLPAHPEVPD
T7 sequence (P54762 18-984): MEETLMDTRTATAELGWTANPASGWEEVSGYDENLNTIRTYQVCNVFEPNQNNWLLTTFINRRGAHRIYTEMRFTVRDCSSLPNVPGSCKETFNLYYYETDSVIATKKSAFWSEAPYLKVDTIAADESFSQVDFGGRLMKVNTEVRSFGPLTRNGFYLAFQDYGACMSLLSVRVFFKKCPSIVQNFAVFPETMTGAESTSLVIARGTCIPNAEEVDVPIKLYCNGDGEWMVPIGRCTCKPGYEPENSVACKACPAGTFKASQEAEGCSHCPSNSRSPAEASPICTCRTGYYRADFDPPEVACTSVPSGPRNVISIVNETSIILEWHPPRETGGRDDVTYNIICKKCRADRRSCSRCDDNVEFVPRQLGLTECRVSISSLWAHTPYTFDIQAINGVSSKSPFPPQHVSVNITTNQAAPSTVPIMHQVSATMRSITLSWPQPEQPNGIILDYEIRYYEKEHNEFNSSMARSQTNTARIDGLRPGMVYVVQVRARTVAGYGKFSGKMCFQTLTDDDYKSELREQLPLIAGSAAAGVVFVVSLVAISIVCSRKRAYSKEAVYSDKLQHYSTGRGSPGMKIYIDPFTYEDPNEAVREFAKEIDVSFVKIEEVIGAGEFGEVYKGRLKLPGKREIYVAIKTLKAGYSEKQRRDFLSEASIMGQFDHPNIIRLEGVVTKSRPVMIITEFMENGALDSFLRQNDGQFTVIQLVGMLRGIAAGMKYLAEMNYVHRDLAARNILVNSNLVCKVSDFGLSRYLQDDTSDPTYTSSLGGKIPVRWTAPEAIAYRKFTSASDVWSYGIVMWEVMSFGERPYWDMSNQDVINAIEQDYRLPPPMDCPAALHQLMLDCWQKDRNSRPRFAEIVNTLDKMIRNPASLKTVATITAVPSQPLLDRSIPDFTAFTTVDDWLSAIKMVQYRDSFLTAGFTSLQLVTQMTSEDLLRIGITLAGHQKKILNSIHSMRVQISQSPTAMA

`Brc1ccc2nccc(Nc3ccc4cn[nH]c4c3)c2c1` [Compound 35, 6-Bromo-N-(1H-indazol-6-yl)quinolin-4-amine] gave an activity at 1 µM [1] of 86%, an activity at 1 µM [2] of 100% and an activity at 1 µM (ALK(C1156Y)) of 64%. For the same compound, the activity at 1 µM (ARK5) was 100%, the activity at 1 µM (BRK) was 93% and the activity at 1 µM (CDK3) was 96%. The activity at 1 µM (EPHB1) was 100%, the activity at 1 µM (ERK2) was 100% and the activity at 1 µM (ERN1) was 91%. For the same compound, the activity at 1 µM (FAK) was 99%, the activity at 1 µM (FLT3(R834Q)) was 83% and the activity at 1 µM (FLT3-autoinhibited) was 100%. For the same compound, the activity at 1 µM (FRK) was 100%, the activity at 1 µM (GRK4) was 100% and the activity at 1 µM (IGF1R) was 100%. For the same compound, the activity at 1 µM [3] was 98%, the activity at 1 µM (LIMK1) was 100% and the activity at 1 µM (LOK) was 100%. The activity at 1 µM (MARK3) was 100%, the activity at 1 µM (MERTK) was 85% and the activity at 1 µM (MET(Y1235D)) was 100%. It also gave an activity at 1 µM (MRCKA) of 100%, an activity at 1 µM (MST1) of 100% and an activity at 1 µM (MST3) of 100%. For the same compound, the activity at 1 µM (MYO3B) was 100%, the activity at 1 µM (NEK4) was 100% and the activity at 1 µM (OSR1) was 76%. For the same compound, the activity at 1 µM (PAK1) was 85%, the activity at 1 µM (PIK3C2G) was 100% and the activity at 1 µM (PIK3CD) was 100%. The activity at 1 µM (PYK2) was 100%, the activity at 1 µM (RAF1) was 100% and the activity at 1 µM (RET(M918T)) was 100%. It also gave an activity at 1 µM (RIPK2; [5]) of 29%, an inhibition at 1 µM (RIPK2; KinomeScan, screened at 1 μM, read-out: kinases inhibited at 1 μM: RIPK2) of 71% and an activity at 1 µM [4] of 57%. The activity at 1 µM (SGK2) was 96%, the activity at 1 µM (SIK) was 100% and the activity at 1 µM (TGFBR2; [5]) was 18%. The inhibition at 1 µM (TGFBR2; KinomeScan, screened at 1 μM, read-out: kinases inhibited at 1 μM: TGFBR2) was 82%, the activity at 1 µM (TLK1) was 95% and the activity at 1 µM (ULK2) was 94%. For the same compound, the activity at 1 µM (WNK2) was 100%.
